Reference: patent US10202580B2, “Adult oligodendrocyte-type 2 astrocyte progenitor cell production method” (Japan Science and Technology Agency, priority 2014, dated 2019)

Test system: proliferating OPC
Experiment: Number of cell divisions per colony in TH- or RA-containing medium, oxygen 1.5% by volume (Example 3)
Format: cell-based, rat
Conditions: RA 1 ng/mL; 1.5% O2; 12 days
Experimental: In addition, unless specifically indicated otherwise, the proliferating OPC used in the following examples were isolated from the optic nerves of 7-day-old rats (P7) in accordance with the immunopanning method of Barres, et al. (Barres, et al., Cell, 1992, Vol. 70, p. 31-46), and the purity thereof (percentage of proliferating OPC relative to all cells) was 99.9% or more.
Proliferating OPC were cultured in medium to which was added thyroid hormone or medium to which was added retinoic acid in an environment having an oxygen concentration of 1.5% by volume followed by investigating the effect of retinoic acid […] on the proliferating OPC.
Six glass bottom culture dishes having a diameter of 12 mm and-coated with PDL were prepared by seeding with 300 proliferating OPC per culture disk, followed by culturing for 12 days at 37° C. in an environment having an oxygen concentration of 1.5% by volume and carbon dioxide concentration of 5% by volume. […]
Following completion of culturing, the numbers of cells that formed colonies were respectively counted and the number of cell divisions was determined for each colony. […]

CC1=C(/C=C/C(C)=C/C=C/C(C)=C/C(=O)O)C(C)(C)CCC1 [RA, all-trans retinoic acid]
effect on proliferating OPC in a low oxygen environment: able to interrupt proliferation of proliferating OPC and induce differentiation to adult OPC
